Target: T1, human sputum elastase (HSE) (Homo sapiens, UniProt P08246)
T1 construct: human sputum elastase (HSE); from tissue; host or cells: human sputum (from the enzyme's name only)
T1 sequence (P08246 30-247 limits assumed): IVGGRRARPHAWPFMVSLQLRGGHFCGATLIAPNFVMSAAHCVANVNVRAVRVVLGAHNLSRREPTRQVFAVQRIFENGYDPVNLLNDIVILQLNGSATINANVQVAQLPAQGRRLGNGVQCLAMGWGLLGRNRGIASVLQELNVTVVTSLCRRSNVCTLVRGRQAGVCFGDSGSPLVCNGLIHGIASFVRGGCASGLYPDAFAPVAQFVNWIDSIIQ
Assay: Inhibitory effects on human sputum elastase
Assay type: biochemical
Conditions: pre-incubated at 37°C for 20 minutes; substrate MeO-Suc-Ala-Ala-Pro-Val-pNA, 37°C for 5 minutes; HEPES buffer (pH 8.0); pNA measured at 405 nm
Protocol: (1) Inhibitory effects on human sputum elastase
A mixture of 0.5 ml of 0.2 mM HEPES buffer (pH 8.0), 0.2 ml of 2.5 M aqueous solution of sodium chloride, 0.1 ml of 1% polyethyleneglycol 6000, 0.13 ml of distilled water, 0.01 ml of a solution of test compound in dimethylsulfoxide (DMSO) and 0.05 ml of 0.8 U/ml human sputum elastase (HSE) was pre-incubated at 37°C, for 20 minutes. 0.01 ml of 5 mM MeO-Suc-Ala-Ala-Pro-Val-pNA in DMSO was added to the above mixture and the mixture was incubated at 37°C for 5 minutes. The reaction was terminated by 0.1 ml of 50% acetic acid and then p-nitroanilide (pNA) released was measured spectrophotometrically at 405 nm. Percent inhibition of a compound was calculated by the following equation. Inhibition (%) = [1 - {delta OD (test-blank) / delta OD (control-blank)}] × 100 [formula]

IC50: 0.088 µM
Structure (SMILES): CC(C)C(NC(=O)Cn1c(-c2ccccc2)ncc([N+](=O)[O-])c1=O)C(=O)c1nnc(C(C)(C)C)o1 (racemic) [Example 7(1), N-[(1RS)-1-(5-(t-butyl)-1,3,4-oxadiazol-2-ylcarbonyl)-2-methylpropyl]-2-[6-oxo-2-phenyl-5-nitro-1,6-dihydropyrimidin-1-yl]acetamide]

Source: EP1219608A1, “PYRIMIDINE DERIVATIVES, PROCESS FOR PREPARING THE DERIVATIVES AND DRUGS CONTAINING THE SAME AS THE ACTIVE INGREDIENT” (ONO PHARMACEUTICAL CO., LTD., priority 1999, dated 2001)
